Here are results for four compounds from patent US8183374B2, “Piperidine and piperazine derivatives” (M's Science Corporation, priority 2006, dated 2012).

In one data set the test system is rats. The conditions noted are these: microinjection/injection in rats; cited from earlier work.
For a further data set, the target named is T1, σ1 receptors (Homo sapiens, UniProt Q99720).
T1 construct: endogenous in cells; host or cells: HEK-293 cell membranes
The data set can be described thus: σ1 receptor binding assay. As to conditions: HEK-293 cell membranes, 10 nM (+)-[3H]-pentazocine, 120 min at 37° C. The procedure: Sigma-1 (σ1) and sigma-2 (σ2) receptor binding assays are carried out in membranes from HEK-293 (Human Embryonic Kidney) cells.
Confluent HEK-293 cells are harvested in PBS/5 mM EDTA. They are centrifuged at 2000 rpm for 5 min and then washed two times in PBS. Cells are homogenized in 20 mM Tris-HCL (pH=7.5) containing 5 mM EDTA, 0.5 mM PMSF and 0.5 μg/mL leupeptin using a Dounce homogenizer and sonicated for 5 minutes.
Nuclear debris and intact cells are removed by centrifugation at 3000 rpm for 10 minutes at 4° C. […]
Proteins are determined using the Bio Rad Protein Assay Dye Reagent and the membranes are aliquoted and frozen at −80° C. […]
Total binding is determined by incubating 50 μg of HEK-293 cell membranes with 10 nM (+)−[^3H]-pentazocine (Perkin-Elmer, 35 Ci/mmol) and assay buffer (50 mM Tris-HCl, pH=8.3) in a total volume of 200 μl. Non specific binding is determined in the presence of 10 μM unlabeled pentazocine. […] The filters are washed three times and the membrane-bound radioactivity is determined in a Microbeta scintillation counter. […]
Specific binding is determined by subtraction of non specific binding from total binding. […]

T1 sequence (Q99720 whole entry): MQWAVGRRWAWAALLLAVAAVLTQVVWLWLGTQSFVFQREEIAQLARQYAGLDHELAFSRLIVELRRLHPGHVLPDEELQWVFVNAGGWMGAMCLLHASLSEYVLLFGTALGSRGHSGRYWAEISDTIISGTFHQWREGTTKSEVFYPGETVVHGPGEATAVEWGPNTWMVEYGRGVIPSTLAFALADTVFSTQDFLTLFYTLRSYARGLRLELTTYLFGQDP

For the compound `COc1ccc(CCN2CCN(CCCc3ccccc3)CC2)cc1OC` [SA-4503, 1-[2-(3,4-dimethoxyphenyl)ethyl]-4-(3-phenylpropyl)piperazine], the “neck dystonia in rats” value in the data set on rats is reported as “had no effect”.
On to `COc1cc(CCC(=O)N2CCN(CCOc3ccc(F)cc3)CC2)cc(OC)c1OC.Cl` [Example 35, 1-{4-[2-(4-Fluorophenoxy)Ethyl]Piperazin-1-yl}-3-(3,4,5-Trimethoxy-Phenyl)Propan-1-One Hydrochloride], for which the “IC50 in the σ1 receptor binding assay” value at σ1 receptors is “a little less active”.
For `COc1cc(CC(=O)N2CCN(CCOc3ccccc3F)CC2)cc(OC)c1OC.Cl` [Example 41, 1-{4-[2-(2-Fluorophenoxy)Ethyl]Piperazin-1-yl}-2-(3,4,5-Trimethoxy-Phenyl)Ethanone Hydrochloride], the “IC50 in the σ1 receptor binding assay” value at σ1 receptors is “a little less active”.
`Cc1ccccc1NC(=N)Nc1ccccc1C` [DTG, 1,3-di-2-tolyl-guanidine]: the “neck dystonia in rats” value with rats was “induced neck dystonia”.
